# Ends that are not written are not given here.
# Experiments:
# 293T cells = assay type: cell-based, human; conditions: for Effect of other salts on enhancing TAN-mediated transfection: salt in place of CaCl2
# Description: 293T (human embryonic kidney) cells were grown in Dulbecco's modified Eagle's medium (Life Technologies, Rockville, Md.) supplemented with 10% FBS, 100 units/ml penicillin, and 100 μg/ml of streptomycin in a 37° C. CO2 incubator. Cells were regularly passed to maintain growth. Twenty-four hours before transfection, cells were trypsinized and plated on 96-well plates (100 μl/well) in the above medium without the antibiotics. Ten μl of fraction 2 was added to 293T cells at 15% confluency in serum-containing medium. Fluorescence microscopy was performed at 12 hours, after changing medium and washing cells.
# TAN (SEQ ID NO:3) at 0.1 to 5 μg per 96-well transfection was mixed with 0.1 μg plasmid pEGFP-N1 (BD ClonTech) for 5 min, diluted in 40 μl DMEM, then added to cells. Fluorescence microscopy was performed at different time points to observe the expression of GFP as the indication of transfection event. Note that by using GFP as reporter, the total transfection efficiency was underestimated due to certain percentage of cells would not express the GFP to levels high enough for detection.
# Different concentrations of TAN (SEQ ID NO:3) and CaCl2 were tested in combination for transfection. TAT (SEQ ID NO:1) and another peptide, HT 31 (a widely used PKA-anchor interaction interruption peptide) were included as controls. Generally, experiments were performed similarly as in the above examples except that peptide was added to DNA first, followed by addition of CaCl2.
# [1] = test system: monkey kidney cell Vero-E6; test: Peptide as additive to TransIt-Oligo reagent transfection of pEFGP-N1; assay type: cell-based; conditions: 0.1 μg plasmid, 96-well, about 30% confluency, increasing amount of peptide
# [2] = test system: approximately 300 bp PCR product linear dsDNA; test: Band-shift assay with short linear dsDNA (siRNA-expressing PCR product); assay type: binding; conditions: 30 min reaction, 2% gel
# Description: In order to examine whether TAN could directly interact with the transfected plasmid DNA as predicted by the transfection results, band-shift assays were performed. Different amount of TAN (SEQ ID NO:3) dissolved in H2O was mixed with 0.5 μg of plasmid with or without 15 mM CaCl2, incubated for 5 min, followed by addition of 2 μl of DNA loading dye (30% glycerol), and loaded to 0.7% agarose gel. The EB-containing gel was run for about 45 min at 120 volts before the picture taken under UV lights.
# The ability of TAN (SEQ ID NO:3) to bind short linear dsDNA also was examined. The DNA tested was an approximately 300 bp PCR product that is used to express small interfering RNAs (siRNAs). The experiments were done similarly to those described in Example 6, except that the reactions were allowed to proceed to 30 min and the gel was 2%. […] This difference may be due to a difference in the relative amount of DNA in each type of complex or to the structural constrains of linear versus circular DNA. […] Because these cassettes express siRNAs under the control of Pol III promoter as apposed to Pol II in GFP expression unit, it is therefore likely that peptide assisted transfection (PAT) is independent of promoter used, as expected.
compound,measurement,setting,value
[Cl-].[Cl-].[Mg+2] [MgCl2],Effect of other salts on enhancing TAN-mediated transfection,293T cells,showed no effect
[Cl-].[Na+] [NaCl],Effect of other salts on enhancing TAN-mediated transfection,293T cells,showed no effect
YGRKKRRQRRR [TAT],Enhancement of TransIt-Oligo transfection by peptide,[1],did not show such enhancement
same,Behaviour at slightly increased concentration,[2],quickly precipitated DNA
same,Binding to linear dsDNA (band shift),[2],did not bind at the lower concentrations
same,Effect of control peptide together with CaCl2,293T cells; control peptides with CaCl2 and DNA,caused cells to lyse
YGRKKRRQRRRGQRNPNKKWS [TAN],"Toxicity to treated cells (growth arrest, cell death)",293T cells; peptide/Ca++ transfection,did not show arrest of growth or cell death

# Reference: patent publication US20050042603A1, “Compositions and methods for peptide-assisted transfection” (Allele Biotechnology & Pharmaceuticals, Inc., priority 2003, published 2005)
